According to US20210186934A1, “COMPOSITIONS AND USES THEREOF” (LIVERPOOL JOHN MOORES UNIVERSITY, priority 2018, published 2021):

What was measured:
Assay type in all cases: cell-based, human
UCA1 = test: LncRNA UCA1 induction in scratched HPEK monolayers; conditions: 5 days
Description: (§1) FIG. 6: Induction of miR-184 in scratched monolayers. Confluent HPEK monolayers were scratched and cells harvested after 5 days in low (0.07 mM) or high (1.5 mM) Ca^2+ media as indicated. The SOCE blockers Gd^3+ and BTP2 and were added 1 h after scratching and refreshed after day 2. (a-d) miR-184 expression normalized to SNORD72. (c-d) LncRNA UCA1 expression normalised to GAPDH; and
(§2) Total RNA was isolated from cells using the AllPrep DNA/RNA/miRNA Universal kit (Qiagen, Manchester, UK). RNA concentration was determined using a NanoDrop™ 2000c. Complementary DNA (cDNA) was synthesised from 400 ng of RNA using the miScript II RT kit (Qiagen) with HiFlex buffer. PCR amplifications were performed with Quantifast SYBR Green and QuantiTect miRNA/universal primers or RT^2 mRNA primer assays, all from Qiagen. Thermocycling was performed on a Rotor-Gene® as follows: 95° C. for 15 min, followed by 40 cycles of 94° C. for 15 s, 55° C. for 30 s and 70° C. for 30 s. Relative expression of miRNA and mRNA determined using the 2^−ΔΔCT relative quantification method (Livak and Schmittgen, 2001).
The long non-coding RNA UCA1 (urothelial carcinoma associated 1) has been identified as a competing endogenous RNA (ceRNA) with four predicted miR-184-binding sites (Zhou et al., 2017). The expression of UCA1 in the HPEK was therefore examined. […]

ORAI1 = ORAI1 expression in HPEK; conditions: data not shown
Excerpt: To determine whether Ca^2+-dependent induction of miR-184 was associated with SOCE, HPEK were maintained in high Ca^2+ for 5 days in the presence of the SOCE blocker gadolinium (III) Gd^3+ or the pharmacologic ORAI1 inhibitor BTP2. Alternatively, ORAI1 expression was ablated using short-interfering RNA (siRNA) that was transferred into the cells using nucleofection 1 d prior to Ca^2+ elevation.

miR-184 [1] = test: miR-184 induction in scratched HPEK monolayers; conditions: low Ca2+ (0.07 mM), 5 days
Description: as §1
as §2, with “Thermocycling was performed on a Rotor-Gene® as follows: 95° C. for 15 min, followed by 40 cycles of 94° C. for 15 s, 55° C. for 30 s and 70° C. for 30 s.” left out
The inventors maintained the HPEK in low Ca^2+ (0.07 mM) medium and allowed them to approach confluence in 6-well plates prior to wounding. Cells were harvested 5 days later and miR-184 expression assessed as described above. […] In contrast, when extracellular Ca^2+ was raised to 1.5 mM to 5 days to evoke HPEK differentiation, only a relatively modest 10-fold rise in miR-184 expression was detected (FIG. 6d). […]

miR-184 [2] = test: Induction of miR-184 in HPEK by differentiation agents (sqRT-PCR); conditions: 1 or 5 days
Description: FIG. 1: Induction of miR-184 during Ca^2+-dependent HPEK differentiation. […] Data shown represent means +SEM from 3 independent experiments. Expression was normalized to SNORD72 for miR-184 and GAPDH for IVL. Values are presented relative to 0.07 mM Ca^2+ or DMSO-treated controls;
Human progenitor epidermal keratinocytes (HPEK) were isolated from human foreskin or purchased from CellnTec (Bern, Switzerland). For isolation, tissues were washed with phosphate-buffered saline, trimmed of any subcutaneous fat, connective tissues and blood vessels before digestion with 20 mg/ml dispase (Sigma) at 4° C. overnight with further digestion for 1 hour at room temperature. Thereafter, the epidermis was separated and incubated in 0.5% TrpLE (Thermofisher scientific, Cheshire, UK) for 5 min at 37° C., 5% CO2. Keratinocytes were centrifuged (1200 rpm for 5 min) and re-suspended in CnT-Prime (CellnTec) supplemented with 1% penicillin/streptomycin/amphotericin B (PSA) and IsoBoost supplement CnT-ISO (CellnTec) to enhance isolation efficiency. Culture medium was changed every 2-3 days until cells reached 80% confluence with PSA exclusion from the culture medium after the first passage. Keratinocytes were sub-cultured using CnT-Accutase (CellnTec) and re-cultured at 4×10^3 cells per cm^2. For differentiation, keratinocytes were at 3×10^5/well of a 6-well plate in CnT-Prime and allowed to reach confluence before adjusting the medium to 1.5 mM calcium using CaCl2.
as §2
(§3) Expression of miR-184 in HPEK was evaluated and maintained in parallel cultures under low (0.07 mM) to sustain proliferation or high (1.5 mM) extracellular Ca^2+ to promote differentiation.

involucrin (IVL) = test: IVL expression in HPEK treated with differentiation agents (sqRT-PCR); conditions: 100 nM, 5 d, normalized to GAPDH
Description: FIG. 1: Induction of miR-184 during Ca^2+-dependent HPEK differentiation. (a) HPEKs grown to confluence were treated with high (1.5 mM) Ca^2+, 100 nM 1,25(OH)D3, 100 nM PMA or dimethyl sulfoxide (DMSO) vehicle for 1 or 5 days (d). (b) Upregulation of the HPEK differentiation marker involucrin (IVL) during 5 d exposure to 1.5 mM Ca^2+, 100 nM 1,25(OH)D3 or 100 nM PMA. Data shown represent means +SEM from 3 independent experiments. Expression was normalized to SNORD72 for miR-184 and GAPDH for IVL. Values are presented relative to 0.07 mM Ca^2+ or DMSO-treated controls;
Human progenitor epidermal keratinocytes (HPEK) were isolated from human foreskin or purchased from CellnTec (Bern, Switzerland). […]
Total RNA was isolated from cells using the AllPrep DNA/RNA/miRNA Universal kit (Qiagen, Manchester, UK). RNA concentration was determined using a NanoDrop™ 2000c. […] PCR amplifications were performed with Quantifast SYBR Green and QuantiTect miRNA/universal primers or RT^2 mRNA primer assays, all from Qiagen. […] Relative expression of miRNA and mRNA determined using the 2^−ΔΔCT relative quantification method (Livak and Schmittgen, 2001).
as §3

Molecule | reduction of UCA1 induction (UCA1) | effect on ORAI1 expression (ORAI1) | effect on scratch-evoked induction of miR-184 (miR-184 [1]) | IVL expression (involucrin (IVL)) | effect on miR-184 expression (miR-184 [2]; 100 nM, vs DMSO) | further results
[Cl][Gd]([Cl])[Cl] [Gd^3+, Gadolinium(III) chloride] | around 50% | little effect on ORAI1 expression | abolished the induction of miR-184 |  |  | 
Cc1nnsc1C(=O)Nc1ccc(-n2nc(C(F)(F)F)cc2C(F)(F)F)cc1 [BTP2] | around 50% | little effect on ORAI1 expression | abolished the induction of miR-184 |  |  | 
IFNγ: Interferon gamma, reported to trigger keratinocyte differentiation |  |  |  |  |  | effect on miR-184 expression (miR-184 [2]; 10 ng/ml, data not shown): no induction of miR-184 was observed
CCCCCCCCCCCCCC(=O)O[C@@H]1[C@@H](C)[C@@]2(O)[C@@H](C=C(CO)C[C@]3(O)C(=O)C(C)=C[C@@H]23)[C@@H]2C(C)(C)[C@]12OC(C)=O [PMA, phorbol 12-myristate 13-acetate] |  |  |  | evoked robust IVL expression | did not promote miR-184 expression | effect on miR-184 expression (miR-184 [2]; 100 nM, vs DMSO, listed as phorbol ester): neither phorbol ester nor 1, 25-dihydroxyvitamin D3 had any effect
C=C1/C(=C\C=C2/CCC[C@]3(C)[C@@H]([C@H](C)CCCC(C)(C)O)CC[C@@H]23)C[C@@H](O)C[C@@H]1O [1, 25-(OH)2D3, 1, 25-dihydroxyvitamin D3] |  |  |  | evoked robust IVL expression | did not promote miR-184 expression | effect on miR-184 expression (miR-184 [2]; 100 nM, vs DMSO, listed as 1, 25-dihydroxyvitamin D3): neither phorbol ester nor 1, 25-dihydroxyvitamin D3 had any effect
